Measurements reported in ChEMBL document CHEMBL1201862, “PubChem BioAssay data set” (2004).
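A five-concentration, 48-hour dose response in 96-well plates underlies each endpoint, interpolated linearly between surrounding concentrations. GI50 is the concentration that inhibits growth by half.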 Activity calls are given as the source filed them. No stated cut-off is given here; in the data, active = GI50 up to about 1.1 µM and inactive = higher.

Assays:
Assay in all cases: NCI-60 cell line screen, 48 h
786-0 = tested on: 786-0
A549 = tested on: A549
ACHN = tested on: ACHN
BT-549 = tested on: BT-549
CAKI-1 = tested on: CAKI-1
CCRF-CEM = tested on: CCRF-CEM
COLO 205 = tested on: COLO 205
DU-145 = tested on: DU-145
EKVX = tested on: EKVX
HCC 2998 = tested on: HCC 2998
HCT-116 = tested on: HCT-116
HCT-15 = tested on: HCT-15
HL-60 = tested on: HL-60
HOP-92 = tested on: HOP-92
HT-29 = tested on: HT-29
Hs-578T = tested on: Hs-578T
IGROV-1 = tested on: IGROV-1
K562 = tested on: K562
KM12 = tested on: KM12
LOX IMVI = tested on: LOX IMVI
M14 = tested on: M14
MCF7 = tested on: MCF7
MDA-MB-231 = tested on: MDA-MB-231
MDA-MB-435 = tested on: MDA-MB-435
MDA-N = tested on: MDA-N
MOLT-4 = tested on: MOLT-4
Malme-3M = tested on: Malme-3M
NCI-H226 = tested on: NCI-H226
NCI-H23 = tested on: NCI-H23
NCI-H460 = tested on: NCI-H460
NCI-H522 = tested on: NCI-H522
NCI/ADR-RES = tested on: NCI/ADR-RES
OVCAR-3 = tested on: OVCAR-3
OVCAR-4 = tested on: OVCAR-4
OVCAR-5 = tested on: OVCAR-5
OVCAR-8 = tested on: OVCAR-8
PC-3 = tested on: PC-3
RPMI-8226 = tested on: RPMI-8226
SF-268 = tested on: SF-268
SF-295 = tested on: SF-295
SF-539 = tested on: SF-539
SK-MEL-28 = tested on: SK-MEL-28
SK-MEL-2 = tested on: SK-MEL-2
SK-MEL-5 = tested on: SK-MEL-5
SK-OV-3 = tested on: SK-OV-3
SN12C = tested on: SN12C
SNB-19 = tested on: SNB-19
SNB-75 = tested on: SNB-75
SW-620 = tested on: SW-620
T47D = tested on: T47D
U-251 = tested on: U-251
UACC-257 = tested on: UACC-257
UACC-62 = tested on: UACC-62
UO-31 = tested on: UO-31
A498 = tested on: A498
HOP-62 = tested on: HOP-62
RXF 393 = tested on: RXF 393
SR = tested on: SR
TK-10 = tested on: TK-10

Measured: GI50

C=C1C(=O)OC2C1CC(OC(C)=O)/C(C)=C/CCC1(C)OC21 (configuration not stated)
> 100 µM: HCT-15
inactive: 786-0 > 100 µM | A549 > 100 µM | ACHN > 100 µM | BT-549 > 100 µM | CAKI-1 > 100 µM | CCRF-CEM > 100 µM | COLO 205 > 100 µM | DU-145 > 100 µM | EKVX > 100 µM | HCC 2998 > 100 µM | HCT-116 > 100 µM | HL-60 > 100 µM | HOP-92 > 100 µM | HT-29 > 100 µM | Hs-578T > 100 µM | IGROV-1 > 100 µM | K562 > 100 µM | KM12 > 100 µM | LOX IMVI > 100 µM | M14 > 100 µM | MCF7 > 100 µM | MDA-MB-231 > 100 µM | MDA-MB-435 > 100 µM | MDA-N > 100 µM | MOLT-4 > 100 µM | Malme-3M > 100 µM | NCI-H226 > 100 µM | NCI-H23 > 100 µM | NCI-H460 > 100 µM | NCI-H522 > 100 µM | NCI/ADR-RES > 100 µM | OVCAR-3 > 100 µM | OVCAR-4 > 100 µM | OVCAR-5 > 100 µM | OVCAR-8 > 100 µM | PC-3 > 100 µM | RPMI-8226 > 100 µM | SF-268 > 100 µM | SF-295 > 100 µM | SF-539 > 100 µM | SK-MEL-28 > 100 µM | SK-MEL-2 > 100 µM | SK-MEL-5 > 100 µM | SK-OV-3 > 100 µM | SN12C > 100 µM | SNB-19 > 100 µM | SNB-75 > 100 µM | SW-620 > 100 µM | T47D > 100 µM | U-251 > 100 µM | UACC-257 > 100 µM | UACC-62 > 100 µM | UO-31 > 100 µM

N#CCCNCCN(CCN(C(=O)Nc1ccccc1)c1ccccc1)C(=O)Nc1ccccc1
inactive: 786-0 37.1 µM | A498 51.2 µM | A549 48.1 µM | ACHN 47.2 µM | BT-549 38.4 µM | CCRF-CEM 78.9 µM | COLO 205 20.2 µM | DU-145 66.8 µM | EKVX 67.1 µM | HCC 2998 16.1 µM | HCT-116 21.4 µM | HL-60 35.9 µM | HOP-62 65.9 µM | HOP-92 40.6 µM | HT-29 33.2 µM | Hs-578T 59.2 µM | IGROV-1 50.4 µM | K562 67 µM | LOX IMVI 37.6 µM | M14 21.1 µM | MCF7 37.8 µM | MDA-MB-231 > 100 µM | MDA-N 47 µM | MOLT-4 39.4 µM | Malme-3M 23.4 µM | NCI-H226 54.7 µM | NCI-H23 33.2 µM | NCI-H460 37.9 µM | NCI-H522 24.8 µM | NCI/ADR-RES 58.3 µM | OVCAR-5 64.6 µM | OVCAR-8 59.4 µM | PC-3 57.3 µM | RPMI-8226 57 µM | RXF 393 31.7 µM | SF-268 63.5 µM | SF-295 51.8 µM | SK-MEL-28 18.7 µM | SK-MEL-2 38.4 µM | SK-MEL-5 19.9 µM | SK-OV-3 > 100 µM | SN12C 78.9 µM | SNB-19 83.2 µM | SNB-75 25.8 µM | SR 34.2 µM | SW-620 59.7 µM | T47D 41.5 µM | TK-10 29.5 µM | U-251 > 100 µM | UACC-257 15.7 µM | UACC-62 32.2 µM | UO-31 26.4 µM
41.5 µM: HCT-15
